In patent publication US11130769B2 (Prelude Therapeutics Incorporated, priority 2018, dated 2021):

Assays:
MCL-1 = MCL-1 (Homo sapiens (Human), UniProt Q07820); assay: Cell free Mcl-1:Bim affinity assay (fluorescence polarization competition); format: binding; conditions: 15 nM MCL-1, 5 nM FITC-Bim, 1 hour at room temperature; class symbols; read-out: BIM_Ki
Summary of the method: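 Fluorescence polarization competition: 10-point 3-fold compound dilutions displaced 5 nM FITC-Bim from 15 nM MCL-1 over 1 h at room temperature. Ki was derived from the fitted IC50 using the Nikolovska-Coleska equation, with percent inhibition normalized to DMSO and positive controls.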

H929 cells = assay: Cell viability assay (H929 10 FBS); format: cell-based; conditions: Homo sapiens, NCI-H929, 24 hours, read-out: H929_10FBS IC50
Summary of the method: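 ATP-based luminescence (CellTiter-Glo or ATPlite 1 Step, 30-60 min at RT) gauged viability of H929 myeloma cells after 24 h compound treatment at 37 °C. Cells plated at 4000 per well in 10% FBS RPMI 1640 supplemented with pyruvate, HEPES and glucose.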

Chain of MCL-1 (Q07820 whole entry): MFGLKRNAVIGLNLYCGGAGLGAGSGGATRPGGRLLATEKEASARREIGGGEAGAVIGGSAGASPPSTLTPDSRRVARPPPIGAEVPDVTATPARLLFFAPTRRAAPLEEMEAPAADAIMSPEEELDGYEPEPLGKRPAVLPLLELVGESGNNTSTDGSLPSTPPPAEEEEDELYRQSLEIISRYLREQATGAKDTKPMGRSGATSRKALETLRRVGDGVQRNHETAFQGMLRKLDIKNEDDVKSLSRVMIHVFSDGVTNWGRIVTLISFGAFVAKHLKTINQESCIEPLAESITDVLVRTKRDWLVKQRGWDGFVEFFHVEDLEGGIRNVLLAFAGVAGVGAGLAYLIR

Row | SMILES | Ki (MCL-1) [nM] | IC50 (H929 cells) [nM]
1 | CO[C@@H]1/C=C/C[C@H](C)CC(=O)NS(=O)(=O)c2ccc3c(c2)N(C[C@@H]2CC[C@H]21)C[C@@]1(CCCc2cc(Cl)ccc21)CO3 [Example 71, (3R,6R,7R,8E,11S,22S)-6′-Chloro-7-methoxy-11-methyl-15,15-dioxo-spiro[20-oxa-15-thia-1,14-diazatetracyclo[14.7.2.03,6.019,24]pentacosa-8,16(25),17,19(24)-tetraene-22,1′-tetralin]-13-one] | 1 to 100 | > 1000
2 | CN1C/C=C/[C@H](OC(=O)N[C@@H]2CCOC2)[C@@H]2CC[C@H]2CN2C[C@@]3(CCCc4cc(Cl)ccc43)COc3ccc(cc32)S(=O)(=O)NC(=O)C12CCC2 [Example 243, [(3R,6R,7S,8E,22S)-6′-Chloro-11-methyl-12,12-(1,3-propylene)-13,15,15-trioxo-spiro[20-oxa-15-thia-1,11,14-triazatetracyclo[14.7.2.03,6.019,24]pentacosa-8,16,18,24-tetraene-22,1′-tetralin]-7-yl] N-[(3R)-tetrahydrofuran-3-yl]carbamate] | < 1 | < 500
3 | COC1CN(C(=O)O[C@H]2/C=C/CN(C)C(C)(C)C(=O)NS(=O)(=O)c3ccc4c(c3)N(C[C@@H]3CC[C@H]32)C[C@@]2(CCCc3cc(Cl)ccc32)CO4)C1 [Example 217, [(3R,6R,7S,8E,22S)-6′-Chloro-11,12,12-trimethyl-13,15,15-trioxo-spiro[20-oxa-15-thia-1,11,14-triazatetracyclo[14.7.2.03,6.019,24]pentacosa-8,16,18,24-tetraene-22,1′-tetralin]-7-yl] 3-methoxyazetidine-1-carboxylate] | < 1 | < 500
4 | CO[C@H]1/C=C/CNCC2(CCC2)C(=O)NS(=O)(=O)c2ccc3c(c2)N(C[C@H]2CCC21)CC1(CCCc2cc(Cl)ccc21)CO3 (stereo partly drawn) [Example 26, (3R,6R,7R,8E,23S)-6′-Chloro-7-methoxy-13,13-(1,3-propylene)-16,16-dioxo-spiro[21-oxa-16-thia-1,11,15-triazatetracyclo[15.7.2.03,6.020,25]hexacosa[8,17(26),18,20(25)]tetraene-23,1′-tetralin]-14-one] | 1 to 100 | > 1000
5 | CO[C@H]1/C=C/COC2(CC2)C(=O)NS(=O)(=O)c2ccc3c(c2)N(C[C@@H]2CC[C@H]21)C[C@@]1(CCCc2cc(Cl)ccc21)CO3 [Example 28, (3R,6R,7S,8E,22S)-6′-Chloro-7-methoxy-12,12-ethylene-15,15-dioxo-spiro[[11,20]dioxa-15-thia-1,14-diazatetracyclo[14.7.2.03,6.019,24]pentacosa[8,16(25),17,19(24)]tetraene-22,1′-tetralin]-13-one] | < 1 | > 1000
6 | O=C1Cc2cc(OCCN3CCOCC3)cc(c2)OC[C@@H]2CC[C@H]2CN2C[C@@]3(CCCc4cc(Cl)ccc43)COc3ccc(cc32)S(=O)(=O)N1 [Example 105, (3R,6R,24S)-6′-Chloro-11-(2-morpholinoethoxy)-17,17-dioxo-spiro[8,22-dioxa-17-thia-1,16-diazapentacyclo[16.7.2.19,13.03,6.021,26]octacosa-9(28),10,12,18(27),19,21(26)-hexaene-24,1′-tetralin]-15-one] | 1 to 100 | > 1000
7 | CO[C@@H]1/C=C\CN[C@H](C)C(=O)NS(=O)(=O)c2ccc3c(c2)N(C[C@@H]2CC[C@H]21)C[C@@]1(CCCc2cc(Cl)ccc21)CO3 [Example 122, (3R,6R,7R,8Z,12R,22S)-6′-Chloro-7-methoxy-12-methyl-15,15-dioxo-spiro[20-oxa-15-thia-1,11,14-triazatetracyclo[14.7.2.03,6.019,24]pentacosa-8,16(25),17,19(24)-tetraene-22,1′-tetralin]-13-one] | 1 to 100 | > 1000
8 | CCN1C/C=C/[C@H](OC(=O)N2CC(N(C)C)C2)[C@@H]2CC[C@H]2CN2C[C@@]3(CCCc4cc(Cl)ccc43)COc3ccc(cc32)S(=O)(=O)NC(=O)C1(C)C [Example 224, [(3R,6R,7S,8E,22S)-6′-Chloro-11-ethyl-12,12-dimethyl-13,15,15-trioxo-spiro[20-oxa-15-thia-1,11,14-triazatetracyclo[14.7.2.03,6.019,24]pentacosa-8,16,18,24-tetraene-22,1′-tetralin]-7-yl] 3-(dimethylamino)azetidine-1-carboxylate] | < 1 | < 500
9 | COC[C@H]1CCCN1C(=O)O[C@H]1/C=C/COC(C)(C)C(=O)NS(=O)(=O)c2ccc3c(c2)N(C[C@@H]2CC[C@H]21)C[C@@]1(CCCc2cc(Cl)ccc21)CO3 [Example 161, [(3R,6R,7S,8E,22S)-6′-Chloro-12,12-dimethyl-13,15,15-trioxo-spiro[11,20-dioxa-15-thia-1,14-diazatetracyclo[14.7.2.03,6.019,24]pentacosa-8,16,18,24-tetraene-22,1′-tetralin]-7-yl] (2R)-2-(methoxymethyl)pyrrolidine-1-carboxylate] | < 1 | < 1000
10 | CO[C@@H]1/C=C/CCCCC(=O)NS(=O)(=O)c2ccc3c(c2)N(C[C@@H]2CC[C@H]21)C[C@@]1(CCCc2cc(Cl)ccc21)CO3 [Example 73, (3R,6R,7R,8E,23S)-6′-Chloro-7-methoxy-16,16-dioxo-spiro[21-oxa-16-thia-1,15-diazatetracyclo[15.7.2.03,6.020,25]hexacosa-8,17,19,25-tetraene-23,1′-tetralin]-14-one] | 1 to 100 | > 1000
11 | CC1(C)OC/C=C/[C@H](OCCN2CCCC2)[C@@H]2CC[C@H]2CN2C[C@@]3(CCCc4cc(Cl)ccc43)COc3ccc(cc32)S(=O)(=O)NC1=O [Example 66, (3R,6R,7S,8E,22S)-6′-Chloro-12,12-dimethyl-15,15-dioxo-7-(2-pyrrolidin-1-ylethoxy)spiro[11,20-dioxa-15-thia-1,14-diazatetracyclo[14.7.2.03,6.019,24]pentacosa-8,16,18,24-tetraene-22,1′-tetralin]-13-one] | < 1 | < 500

Continued, values first:

Row | Ki (MCL-1) [nM] | IC50 (H929 cells) [nM] | SMILES
12 | 1 to 100 | > 1000 | CO[C@@H]1/C=C\CNC(=O)NS(=O)(=O)c2ccc3c(c2)N(C[C@@H]2CC[C@H]21)C[C@@]1(CCCc2cc(Cl)ccc21)CO3 [Example 130, (3R,6R,7R,8Z,21S)-6′-Chloro-7-methoxy-14,14-dioxo-spiro[19-oxa-14-thia-1,11,13-triazatetracyclo[13.7.2.03,6.018,23]tetracosa-8,15,17,23-tetraene-21,1′-tetralin]-12-one]
13 | 1 to 100 | > 1000 | CO[C@@H]1/C=C/CNCC(C)(C)C(=O)NS(=O)(=O)c2ccc3c(c2)N(C[C@@H]2CC[C@H]21)C[C@@]1(CCCc2cc(Cl)ccc21)CO3 [Example 68, (3R,6R,7R,8E,23S)-6′-Chloro-7-methoxy-13,13-dimethyl-16,16-dioxo-spiro[21-oxa-16-thia-1,11,15-triazatetracyclo[15.7.2.03,6.020,25]hexacosa[8,17(26),18,20(25)]tetraene-23,1′-tetralin]-14-one]
14 | < 1 | < 500 | CC(C)CNC(=O)O[C@H]1/C=C/COC(C)(C)C(=O)NS(=O)(=O)c2ccc3c(c2)N(C[C@@H]2CC[C@H]21)C[C@@]1(CCCc2cc(Cl)ccc21)CO3 [Example 182, [(3R,6R,7S,8E,22S)-6′-Chloro-12,12-dimethyl-13,15,15-trioxo-spiro[11,20-dioxa-15-thia-1,14-diazatetracyclo[14.7.2.03,6.019,24]pentacosa-8,16,18,24-tetraene-22,1′-tetralin]-7-yl] N-isobutylcarbamate]
15 | < 1 | < 1000 | CC(=O)O[C@H]1/C=C/CO[C@@H](C)C(=O)NS(=O)(=O)c2ccc3c(c2)N(C[C@@H]2CC[C@H]21)C[C@@]1(CCCc2cc(Cl)ccc21)CO3 [Example 113, [(3R,6R,7S,8E,12S,22S)-6′-Chloro-12-methyl-13,15,15-trioxo-spiro[11,20-dioxa-15-thia-1,14-diazatetracyclo[14.7.2.03,6.019,24]pentacosa-8,16,18,24-tetraene-22,1′-tetralin]-7-yl] acetate]
16 | < 1 | < 500 | CCN1C/C=C/[C@H](OC(=O)N2CCOCC2)[C@@H]2CC[C@H]2CN2C[C@@]3(CCCc4cc(Cl)ccc43)COc3ccc(cc32)S(=O)(=O)NC(=O)C1(C)C [Example 221, [(3R,6R,7S,8E,22S)-6′-Chloro-11-ethyl-12,12-dimethyl-13,15,15-trioxo-spiro[20-oxa-15-thia-1,11,14-triazatetracyclo[14.7.2.03,6.019,24]pentacosa-8,16,18,24-tetraene-22,1′-tetralin]-7-yl]morpholine-4-carboxylate]
17 | < 1 | < 500 | CC1(C)OC/C=C/[C@H](OC(=O)N2CCN(C3COC3)CC2)[C@@H]2CC[C@H]2CN2C[C@@]3(CCCc4cc(Cl)ccc43)COc3ccc(cc32)S(=O)(=O)NC1=O [Example 187, [(3R,6R,7S,8E,22S)-6′-Chloro-12,12-dimethyl-13,15,15-trioxo-spiro[11,20-dioxa-15-thia-1,14-diazatetracyclo[14.7.2.03,6.019,24]pentacosa-8,16,18,24-tetraene-22,1′-tetralin]-7-yl] 4-(oxetan-3-yl)piperazine-1-carboxylate]
18 | 1 to 100 | < 500 | CC1(C)OC/C=C/[C@H](OC(=O)N2CCN(c3ccccn3)CC2)[C@@H]2CC[C@H]2CN2C[C@@]3(CCCc4cc(Cl)ccc43)COc3ccc(cc32)S(=O)(=O)NC1=O [Example 177, [(3R,6R,7S,8E,22S)-6′-Chloro-12,12-dimethyl-13,15,15-trioxo-spiro[11,20-dioxa-15-thia-1,14-diazatetracyclo[14.7.2.03,6.019,24]pentacosa-8,16,18,24-tetraene-22,1′-tetralin]-7-yl] 4-(2-pyridyl)piperazine-1-carboxylate]
